Data published in ChEMBL document CHEMBL5096229, “A 1,2,3-Triazole Derivative of Quinazoline Exhibits Antitumor Activity by Tethering RNF168 to SQSTM1/P62” (J Med Chem, 2022).
Calls of active or inactive are those of the source. The calls are words filed in the database; no cut-off is given here.

Tests used:
[1] = system: A549; experiment: Cytotoxicity against human A549 cells assessed as reduction in cell viability incubated for 72 hrs by MTS assay; assay type: functional, cell-based; settings: A549, 72 h
[2] = system: HCT-116; experiment: Cytotoxicity against human HCT-116 cells assessed as reduction in cell viability incubated for 72 hrs by MTS assay; assay type: functional, cell-based; settings: HCT-116, 72 h
[3] = system: A-375; experiment: Cytotoxicity against human A-375 cells assessed as reduction in cell viability incubated for 72 hrs by MTS assay; assay type: functional, cell-based; settings: A-375, 72 h
[4] = system: HeLa; experiment: Cytotoxicity against human HeLa cells assessed as reduction in cell viability incubated for 72 hrs by MTS assay; assay type: functional, cell-based
[5] = system: HepG2; experiment: Cytotoxicity against human HepG2 cells assessed as reduction in cell viability incubated for 72 hrs by MTS assay; assay type: functional, cell-based; settings: HepG2, 72 h
[6] = system: MCF7; experiment: Cytotoxicity against human MCF7 cells assessed as reduction in cell viability incubated for 72 hrs by MTS assay; assay type: functional, cell-based; settings: MCF7, 72 h
[7] = system: MDA-MB-231; experiment: Cytotoxicity against human MDA-MB-231 cells assessed as reduction in cell viability incubated for 72 hrs by MTS assay; assay type: functional, cell-based; settings: MDA-MB-231, 72 h
[8] = system: MGC-803; experiment: Cytotoxicity against human MGC-803 cells assessed as reduction in cell viability incubated for 72 hrs by MTS assay; assay type: functional, cell-based; settings: MGC-803, 72 h
[9] = system: U2OS; experiment: Cytotoxicity against human U2OS cells assessed as reduction in cell viability incubated for 72 hrs by MTS assay; assay type: functional, cell-based
[10] = Cytotoxicity against human MCF-10A cells assessed as reduction in cell viability incubated for 72 hrs by MTS assay; assay type: toxicity, cell-based
[11] = biological target: Sequestosome-1 (Homo sapiens, UniProt Q13501); experiment: Binding affinity to P62 in human HCT-116 cells lysates at 10 uM incubated for 12 hrs by pull-down based immunoblot assay; assay type: subcellular; settings: filed as activator
Sequence of Sequestosome-1 (Q13501 whole entry): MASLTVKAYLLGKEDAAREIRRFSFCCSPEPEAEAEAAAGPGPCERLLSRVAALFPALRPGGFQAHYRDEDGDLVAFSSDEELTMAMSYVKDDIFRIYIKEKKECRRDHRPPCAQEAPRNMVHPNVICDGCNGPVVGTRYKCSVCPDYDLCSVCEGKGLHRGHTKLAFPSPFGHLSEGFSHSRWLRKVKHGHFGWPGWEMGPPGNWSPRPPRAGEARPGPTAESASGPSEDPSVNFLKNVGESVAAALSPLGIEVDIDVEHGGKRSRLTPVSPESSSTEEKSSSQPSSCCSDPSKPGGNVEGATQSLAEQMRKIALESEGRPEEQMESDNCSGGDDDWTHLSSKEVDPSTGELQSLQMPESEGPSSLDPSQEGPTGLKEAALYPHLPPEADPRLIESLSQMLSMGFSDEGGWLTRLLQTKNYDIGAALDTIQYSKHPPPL

[12] = system: Bacteria; experiment: Binding affinity to bacteria produced His tagged-P62 at 10 uM incubated for 12 hrs by pull-down based immunoblot assay; settings: filed as activator
[13] = biological target: T1, E3 ubiquitin-protein ligase RNF168 (Homo sapiens, UniProt Q8IYW5); experiment: Binding affinity to RNF168 in human HCT-116 cells lysates at 10 uM by pull-down based immunoblot assay; assay type: subcellular; settings: filed as activator
T1 sequence (Q8IYW5 whole entry): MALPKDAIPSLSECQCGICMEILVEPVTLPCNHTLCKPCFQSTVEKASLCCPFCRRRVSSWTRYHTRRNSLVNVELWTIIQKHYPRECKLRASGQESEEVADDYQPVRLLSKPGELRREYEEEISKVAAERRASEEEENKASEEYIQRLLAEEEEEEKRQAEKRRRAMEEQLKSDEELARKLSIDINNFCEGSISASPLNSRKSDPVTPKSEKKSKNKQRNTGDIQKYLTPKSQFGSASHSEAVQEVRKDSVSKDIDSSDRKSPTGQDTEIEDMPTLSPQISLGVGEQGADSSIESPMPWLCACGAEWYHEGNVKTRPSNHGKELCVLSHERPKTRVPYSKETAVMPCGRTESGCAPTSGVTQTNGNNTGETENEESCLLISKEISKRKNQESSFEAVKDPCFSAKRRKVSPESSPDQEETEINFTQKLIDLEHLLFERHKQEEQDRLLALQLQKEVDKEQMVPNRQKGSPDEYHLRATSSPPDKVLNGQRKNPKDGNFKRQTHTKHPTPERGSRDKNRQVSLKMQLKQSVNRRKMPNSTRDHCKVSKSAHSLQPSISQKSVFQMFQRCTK

[14] = system: Bacteria; experiment: Binding affinity to bacteria produced GST-tagged RNF168 at 10 uM by pull-down based immunoblot assay; settings: filed as activator
[15] = biological target: T1, E3 ubiquitin-protein ligase RNF168; experiment: Binding affinity to RNF168 (unknown origin) by MST assay
[16] = system: HCT-116; experiment: Induction of autophagy in human HCT-116 cells assessed as increase in p62 protein level measured after 12 to 24 hrs by Western blot analysis; assay type: functional, cell-based; settings: time 12-24 hrs
[17] = system: HCT-116; experiment: Induction of autophagy in human HCT-116 cells assessed as increase in LC-3B puncta level measured after 12 to 24 hrs by immunofluorescence analysis; assay type: functional, cell-based; settings: time 12-24 hrs
[18] = system: HCT-116; experiment: Induction of cell cycle arrest in human HCT-116 cells assessed as accumulation at G0/G1 phase at IC50 concentration after 24 hrs by propidium iodide-staining based flow cytometry (reference value: 58.01 +/- 1.77%); assay type: functional
[19] = system: HCT-116; experiment: Induction of cell cycle arrest in human HCT-116 cells assessed as accumulation at S phase at IC50 concentration after 24 hrs by propidium iodide-staining based flow cytometry (reference value: 17.17 +/- 0.18%); assay type: functional
[20] = system: HCT-116; experiment: Induction of cell cycle arrest in human HCT-116 cells assessed as accumulation at G2/M phase at IC50 concentration after 24 hrs by propidium iodide-staining based flow cytometry (reference value: 23.25 +/- 1.38%); assay type: functional
[21] = system: HCT-116; experiment: Induction of cell cycle arrest in human HCT-116 cells assessed as accumulation at G0/G1 phase at 0.34 uM after 24 hrs by propidium iodide-staining based flow cytometry (reference value: 58.01 +/- 1.77%); assay type: functional
[22] = system: HCT-116; experiment: Induction of cell cycle arrest in human HCT-116 cells assessed as accumulation at S phase at 0.34 uM after 24 hrs by propidium iodide-staining based flow cytometry (reference value: 17.17 +/- 0.18%); assay type: functional
[23] = system: HCT-116; experiment: Induction of cell cycle arrest in human HCT-116 cells assessed as accumulation at G2/M phase at 0.34 uM after 24 hrs by propidium iodide-staining based flow cytometry (reference value: 23.25 +/- 1.38%); assay type: functional
[24] = system: HCT-116; experiment: Induction of apoptosis in human HCT-116 cells at 5 to 10 uM measured after 24 hrs by annexinV-FITC/propidium iodide staining based flow cytometry analysis; assay type: functional, cell-based; settings: dose 5-10 µM

| Compound | IC50 [1] | IC50 [2] | other results |
| --- | --- | --- | --- |
| Nc1nc(N)c2cc(-c3cn(-c4ccc(O)cc4)nn3)ccc2n1 | > 20 µM | > 20 µM | – |
| Nc1nc(N)c2cc(-c3cn(-c4ccc(Br)cc4)nn3)ccc2n1 | 2.14 µM | 1.69 µM | – |
| Nc1nc(N)c2cc(-n3cc(-c4ccccc4)nn3)ccc2n1 | 6.65 µM | 5.46 µM | – |
| COc1ccc(-n2cc(-c3ccc4nc(N)nc(N)c4c3)nn2)cc1 | > 20 µM | 2.44 µM | – |
| COc1cc(-c2cn(-c3ccc4nc(N)nc(N)c4c3)nn2)cc(OC)c1OC | 1.88 µM | 0.87 µM | – |
| Cc1nc2ccc(CN(C)c3ccc(C(=O)N[C@@H](CCC(=O)O)C(=O)O)s3)cc2c(=O)[nH]1 [RALTITREXED] | 0.81 µM | 0.076 µM | IC50 [3]: 4.68 µM; IC50 [4]: 5.51 µM; IC50 [5]: 9.63 µM; IC50 [6]: 10.9 µM; IC50 [7]: > 20 µM; IC50 [8]: 9.52 µM; IC50 [9]: > 20 µM; IC50 at 72 h [10]: > 20 µM |
| COc1cc(-n2cc(-c3ccc4nc(N)nc(NCCCCCCNC(=O)CCCC[C@@H]5SC[C@@H]6NC(=O)N[C@@H]65)c4c3)nn2)cc(OC)c1OC | – | – | Activity [11]: Active; Activity [12]: Active; Activity [13]: Active; Activity [14]: Active; Kd [15]: 6.82 µM |
| Nc1nc(N)c2cc(-c3cn(-c4ccc([N+](=O)[O-])cc4)nn3)ccc2n1 | 7.83 µM | 9.86 µM | – |
| CCN(CC)CCCC(C)Nc1ccnc2cc(Cl)ccc12 (stereo not drawn) | – | – | Activity [16]: Active; Activity [17]: Active |
| COc1ccc(OC)c(-n2cc(-c3ccc4nc(N)nc(N)c4c3)nn2)c1 | 8.36 µM | 3.09 µM | – |
| O=c1[nH]cc(F)c(=O)[nH]1 [FLUOROURACIL] | 4.52 µM | 4.89 µM | IC50 [3]: 3.52 µM; IC50 [4]: > 20 µM; IC50 [6]: > 20 µM; IC50 [7]: 10.2 µM; IC50 [8]: 7.54 µM; IC50 [9]: > 20 µM; IC50 at 72 h [10]: > 20 µM; Activity [18]: 34.65%; Activity [19]: 65.12%; Activity [20]: 11.89% |
| COc1ccc(-n2cc(-c3ccc4nc(N)nc(N)c4c3)nn2)c([N+](=O)[O-])c1 | 8.4 µM | 8.04 µM | – |
| Nc1nc(N)c2cc(-c3cn(-c4ccc(F)cc4)nn3)ccc2n1 | 8.7 µM | 2.89 µM | – |
| COc1ccc(-n2cc(-c3ccc4nc(N)nc(N)c4c3)nn2)c(OC)c1 | > 20 µM | 5.35 µM | – |
| COc1cc(-n2cc(-c3ccc4nc(N)[nH]c(=O)c4c3)nn2)cc(OC)c1OC | > 20 µM | > 20 µM | – |
| Nc1nc(N)c2cc(-c3cn(-c4ccc(Cl)cc4)nn3)ccc2n1 | 7.61 µM | 2.15 µM | – |
| COc1cc(-n2cc(-c3ccc4nc(C)[nH]c(=O)c4c3)nn2)cc(OC)c1OC | > 20 µM | > 20 µM | – |
| COc1cc(OC)cc(-n2cc(-c3ccc4nc(N)nc(N)c4c3)nn2)c1 | 4.74 µM | 1.34 µM | – |
| COc1cccc(-n2cc(-c3ccc4nc(N)nc(N)c4c3)nn2)c1 | 3.27 µM | 2.75 µM | – |
| COC(=O)Nc1nc2cc(C(=O)c3cccs3)ccc2[nH]1 [NOCODAZOLE] | – | – | Activity [21]: 2.92%; Activity [22]: 7.11%; Activity [23]: 93.17% |
| N#Cc1ccc(-n2cc(-c3ccc4nc(N)nc(N)c4c3)nn2)cc1 | > 20 µM | > 20 µM | – |
| CC[C@@]1(O)C(=O)OCc2c1cc1n(c2=O)Cc2cc3ccccc3nc2-1 | – | – | Activity [24]: Active |
| COc1ccc(-n2cc(-c3ccc4nc(N)nc(N)c4c3)nn2)cc1O | > 20 µM | > 20 µM | – |
| Nc1nc(N)c2cc(-c3cn(-c4ccccc4)nn3)ccc2n1 | 2.18 µM | 1.93 µM | – |
| Cc1ccc(-n2cc(-c3ccc4nc(N)nc(N)c4c3)nn2)cc1 | 1.78 µM | 2.46 µM | – |
| Nc1nc(N)c2cc(-c3cn(-c4ccc(F)cc4F)nn3)ccc2n1 | 3.74 µM | 3.29 µM | – |
